The results in this text go back to US11077050B2, “Formulation for parenteral administration” (MERCK SHARP & DOHME CORP., priority 2017, dated 2021).

This data set can be described thus: pKa of doravirine. The class given is physicochemical.

For the compound `Cn1c(Cn2ccc(C(F)(F)F)c(Oc3cc(Cl)cc(C#N)c3)c2=O)n[nH]c1=O` [Doravirine], the pKa (in general, the pH at which an ionisable group is half protonated) was 9.47.
